Laboratory results from patent US20250145652A1, “INORGANIC SALTS OF NICOTINAMIDE MONONUCLEOTIDE AS ANTI-AGING AGENTS” (Life Biosciences Inc., priority 2018, published 2025).

System: COV434 cells
Assay: NAD cell assay (NAD cycling method), cellular NAD+ levels
Type: cell-based, human
Settings: NAD levels in COV434 cells, 200 uM, 4 hr; for Fold increase compared to NMN: normalised to protein; for Fold Increase compared to NMN on a molar basis: mole per mole comparison of salt and parent
Procedure: NAD levels were assayed based on the NAD cycling method of Zhu and Rand, PLoS One (2012), herein incorporated by reference. COV434 cells were maintained in 6 well plates and treated with the indicated compounds at a concentration of 200 uM for 4 hr. Media was removed, plates were washed in cold PBS and cells were scraped down in NAD extraction buffer containing 10 mM nicotinamide, 50 mM Tris HCl, 0.1% Triton X-100. Cells were homogenised by sonication for 5 seconds, and samples were centrifuged at 7,000 g for 5 min at 4 degrees. Aliquots were taken for later protein assay, and samples were then passed through 10 kDa amicon filters at 14,000 g, 30 min at 4 degrees to remove proteins from the sample. Each sample was measured in technical triplicate, with 25 μL sample added to 100 μL ADH cycling mix (0.2 mg/ml alcohol dehydrogenase enzyme, 2% ethanol, 100 mM Tris pH 8.5). Samples were allowed to cycle for 10 min at room temperature, followed by 50 μL addition of an MTT/PMS solution (0.1 mM phenazine methosulfate, 0.8 mM 3-(4,5-Dimethylthiazol-2-yl)-2,5-diphenyltetrazolium bromide), 100 mM Tris-HCl pH 8.5). Plates were then incubated for 15 min and absorbance was measured at 570 nm. NAD concentrations were extrapolated from a standard curve, and normalised to protein concentrations determined by BCA protein assay.
The fold increase is obtained through a direct comparison on a mole per mole between the compared salt and its parent counterpart.

SMILES	Fold increase compared to NMN	Fold Increase compared to NMN on a molar basis
NC(=O)c1ccc[n+]([C@@H]2O[C@H](COP(=O)([O-])O)[C@@H](O)[C@H]2O)c1 [NMN, nicotinamide mononucleotide]	1.0	1.0
NC(=O)c1ccc[n+]([C@@H]2O[C@H](COP(=O)([O-])[O-])[C@@H](O)[C@H]2O)c1.[Na+] [Compound I-001, Sodium ((2R,3S,4R,5R)-5-(3-carbamoylpyridin-1-ium-1-yl)-3,4-dihydroxytetrahydrofuran-2-yl)methyl phosphate]	1.7	1.78
